Experimental data as given in ChEMBL document CHEMBL3431459, “Roche carnitine palmitoyltransferase modulator screening data (supplementary data associated with the publication CHEMBL2216752)”.
Values after ≈ are worked out from the molar mass of the structure shown.

Tests used:
[1] = target: T1, Carnitine O-palmitoyltransferase 1, muscle isoform (Homo sapiens, UniProt Q92523); assay: SUPPLEMENTARY: Inhibition of Carnitine palmitoyltransferase 1, muscle isoform; set-up: species or system Muscle tissue
T1 sequence (Q92523 whole entry): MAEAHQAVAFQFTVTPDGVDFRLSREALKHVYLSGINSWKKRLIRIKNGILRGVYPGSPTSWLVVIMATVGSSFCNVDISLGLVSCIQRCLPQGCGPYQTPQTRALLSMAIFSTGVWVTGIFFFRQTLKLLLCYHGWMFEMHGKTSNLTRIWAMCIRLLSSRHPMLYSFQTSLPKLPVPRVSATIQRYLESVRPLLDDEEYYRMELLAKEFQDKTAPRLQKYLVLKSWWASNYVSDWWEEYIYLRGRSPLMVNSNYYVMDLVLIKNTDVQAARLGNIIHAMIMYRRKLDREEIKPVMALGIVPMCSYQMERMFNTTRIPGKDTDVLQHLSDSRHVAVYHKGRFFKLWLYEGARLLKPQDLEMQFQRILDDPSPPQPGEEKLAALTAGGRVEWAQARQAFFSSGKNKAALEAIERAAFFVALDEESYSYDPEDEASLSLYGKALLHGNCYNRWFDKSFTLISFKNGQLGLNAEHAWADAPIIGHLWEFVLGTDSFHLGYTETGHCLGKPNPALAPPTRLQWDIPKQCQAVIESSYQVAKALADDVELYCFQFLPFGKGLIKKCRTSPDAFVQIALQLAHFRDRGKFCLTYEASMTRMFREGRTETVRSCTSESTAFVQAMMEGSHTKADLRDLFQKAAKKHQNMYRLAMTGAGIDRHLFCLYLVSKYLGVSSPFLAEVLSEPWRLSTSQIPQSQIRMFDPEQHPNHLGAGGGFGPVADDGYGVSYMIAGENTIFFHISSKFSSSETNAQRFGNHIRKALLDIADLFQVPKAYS

[2] = target: T2, Carnitine O-palmitoyltransferase 2, mitochondrial (Homo sapiens, UniProt P23786); assay: (§1) SUPPLEMENTARY: Inhibition of Carnitine palmitoyltransferase 2
T2 sequence (P23786 whole entry): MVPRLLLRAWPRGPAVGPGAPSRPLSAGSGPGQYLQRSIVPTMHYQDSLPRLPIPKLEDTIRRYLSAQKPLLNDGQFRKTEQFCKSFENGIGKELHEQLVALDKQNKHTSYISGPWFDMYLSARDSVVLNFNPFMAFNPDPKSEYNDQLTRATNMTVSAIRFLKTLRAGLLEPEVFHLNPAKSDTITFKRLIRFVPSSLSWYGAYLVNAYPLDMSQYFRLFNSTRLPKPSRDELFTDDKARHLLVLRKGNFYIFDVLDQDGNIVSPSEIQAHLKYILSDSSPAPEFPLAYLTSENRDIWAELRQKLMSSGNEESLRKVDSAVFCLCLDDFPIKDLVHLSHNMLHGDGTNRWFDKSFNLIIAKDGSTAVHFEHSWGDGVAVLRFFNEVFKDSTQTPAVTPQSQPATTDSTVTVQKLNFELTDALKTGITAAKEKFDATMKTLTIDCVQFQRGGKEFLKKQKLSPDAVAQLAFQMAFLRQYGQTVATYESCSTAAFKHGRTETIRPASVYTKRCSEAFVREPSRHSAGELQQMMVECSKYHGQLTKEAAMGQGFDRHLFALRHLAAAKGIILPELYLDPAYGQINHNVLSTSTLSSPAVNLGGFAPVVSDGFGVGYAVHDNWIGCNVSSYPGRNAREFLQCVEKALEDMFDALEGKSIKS

[3] = target: T3, Carnitine O-palmitoyltransferase 2, mitochondrial (Rattus norvegicus, UniProt P18886); assay: as §1
T3 sequence (P18886 whole entry): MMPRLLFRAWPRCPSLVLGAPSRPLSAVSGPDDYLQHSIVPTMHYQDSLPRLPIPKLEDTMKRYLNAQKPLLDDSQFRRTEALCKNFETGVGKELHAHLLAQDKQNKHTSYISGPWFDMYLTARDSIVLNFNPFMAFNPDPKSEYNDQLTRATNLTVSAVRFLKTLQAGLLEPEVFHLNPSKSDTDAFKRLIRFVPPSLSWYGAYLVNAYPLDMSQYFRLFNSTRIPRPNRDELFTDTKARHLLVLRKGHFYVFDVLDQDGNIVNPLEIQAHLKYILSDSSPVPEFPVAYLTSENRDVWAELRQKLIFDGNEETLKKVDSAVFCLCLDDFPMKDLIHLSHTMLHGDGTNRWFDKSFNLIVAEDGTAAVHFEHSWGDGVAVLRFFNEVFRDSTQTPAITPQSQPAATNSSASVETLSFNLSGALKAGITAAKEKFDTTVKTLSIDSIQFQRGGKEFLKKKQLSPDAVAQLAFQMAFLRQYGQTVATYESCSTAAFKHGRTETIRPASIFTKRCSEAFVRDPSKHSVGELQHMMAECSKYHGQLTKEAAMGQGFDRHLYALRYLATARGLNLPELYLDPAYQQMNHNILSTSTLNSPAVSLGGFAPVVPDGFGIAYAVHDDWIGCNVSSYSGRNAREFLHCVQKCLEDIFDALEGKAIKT

[4] = target: T4, Carnitine O-palmitoyltransferase 1, liver isoform (Homo sapiens, UniProt P50416); assay: (§2) SUPPLEMENTARY: Inhibition of Carnitine palmitoyltransferase 1, liver isoform
T4 sequence (P50416 whole entry): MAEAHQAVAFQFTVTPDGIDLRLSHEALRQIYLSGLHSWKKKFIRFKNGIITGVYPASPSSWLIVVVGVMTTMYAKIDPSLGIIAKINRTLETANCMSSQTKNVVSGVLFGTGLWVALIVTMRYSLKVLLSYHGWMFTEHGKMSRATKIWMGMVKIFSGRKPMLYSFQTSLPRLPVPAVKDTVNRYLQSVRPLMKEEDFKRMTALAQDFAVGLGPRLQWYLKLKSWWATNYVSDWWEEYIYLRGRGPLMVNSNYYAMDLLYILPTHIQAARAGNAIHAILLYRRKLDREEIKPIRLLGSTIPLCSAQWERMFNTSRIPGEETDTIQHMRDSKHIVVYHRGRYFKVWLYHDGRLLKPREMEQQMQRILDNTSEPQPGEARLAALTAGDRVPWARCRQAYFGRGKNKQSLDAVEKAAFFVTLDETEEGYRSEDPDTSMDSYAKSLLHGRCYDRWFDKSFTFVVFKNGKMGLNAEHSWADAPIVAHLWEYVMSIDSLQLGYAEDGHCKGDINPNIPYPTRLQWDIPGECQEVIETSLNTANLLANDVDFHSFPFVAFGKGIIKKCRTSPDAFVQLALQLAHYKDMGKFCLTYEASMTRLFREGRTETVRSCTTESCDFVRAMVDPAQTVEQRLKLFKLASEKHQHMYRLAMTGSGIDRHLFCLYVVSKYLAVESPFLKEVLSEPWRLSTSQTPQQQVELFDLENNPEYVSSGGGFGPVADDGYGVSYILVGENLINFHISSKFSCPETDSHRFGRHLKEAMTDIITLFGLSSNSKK

[5] = target: T5, Carnitine O-palmitoyltransferase 1, liver isoform (Rattus norvegicus, UniProt P32198); assay: as §2
T5 sequence (P32198 whole entry): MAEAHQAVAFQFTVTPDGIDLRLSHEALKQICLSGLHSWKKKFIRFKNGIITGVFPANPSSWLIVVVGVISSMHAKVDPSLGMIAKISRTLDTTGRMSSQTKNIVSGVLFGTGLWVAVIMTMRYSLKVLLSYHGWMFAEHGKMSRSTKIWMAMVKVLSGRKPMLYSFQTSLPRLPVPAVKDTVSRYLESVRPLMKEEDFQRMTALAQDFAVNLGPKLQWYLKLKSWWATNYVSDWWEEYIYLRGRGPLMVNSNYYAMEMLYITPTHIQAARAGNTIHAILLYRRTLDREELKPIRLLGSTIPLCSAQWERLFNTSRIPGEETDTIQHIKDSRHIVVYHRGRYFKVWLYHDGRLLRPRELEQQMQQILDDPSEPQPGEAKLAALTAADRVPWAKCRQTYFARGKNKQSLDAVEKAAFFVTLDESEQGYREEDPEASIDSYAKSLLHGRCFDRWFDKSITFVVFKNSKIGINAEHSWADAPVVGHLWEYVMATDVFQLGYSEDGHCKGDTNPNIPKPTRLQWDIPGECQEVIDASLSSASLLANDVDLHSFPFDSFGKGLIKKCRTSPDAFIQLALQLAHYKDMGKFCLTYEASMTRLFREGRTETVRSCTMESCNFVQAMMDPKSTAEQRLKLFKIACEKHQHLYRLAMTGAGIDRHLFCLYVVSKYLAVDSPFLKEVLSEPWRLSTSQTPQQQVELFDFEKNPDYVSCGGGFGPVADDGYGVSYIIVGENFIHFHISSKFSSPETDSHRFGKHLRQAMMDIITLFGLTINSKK

[6] = SUPPLEMENTARY: Lyophilisation Solubility Assay (LYSA); type: physicochemical; conditions: read-out: Kinetic_solubility
[7] = SUPPLEMENTARY: Lipophilicity (log D) Determination by high-throughput shake-flask; type: physicochemical; conditions: octanol/water
[8] = SUPPLEMENTARY: PAMPA permeability assay; type: physicochemical; conditions: read-out: Permeability

| SMILES | IC50 [1] | IC50 [2] | IC50 [3] | IC50 [4] | IC50 [5] | solubility kinetic [6] | logD [7] | Papp [8] |
| --- | --- | --- | --- | --- | --- | --- | --- | --- |
| O=C1Cc2cc(-c3noc([C@H]4CCCCN4C(=O)COc4ccccc4)n3)ccc2N1 | 27600 nM | 42900 nM | 53500 nM | 13.2 nM | 70.8 nM | 14.5 µg/mL (≈ 34.7 µM) | 2.93 | 2.61 ×10⁻⁶ cm/s |
| COc1ccc(Cl)cc1S(=O)(=O)N1CCOc2c(F)cc(C(=O)Nc3ccc(C(=O)O)c(Cl)c3)cc21 | 5110 nM | 1720 nM | 5740 nM | 131 nM | 166 nM | 380 µg/mL (≈ 684 µM) | 0.42 | 1.45 ×10⁻⁶ cm/s |
| CCOc1ccc2c(c1)CN(C(=O)[C@H]1CCCCN1C(=O)COc1ccccc1)C2 | > 100000 nM | 468 nM | 539 nM | 161 nM | 232 nM | 30 µg/mL (≈ 73.4 µM) | 3.23 | 5.52 ×10⁻⁶ cm/s |
| CN1CCN(C(=O)COc2ccccc2)[C@@H](c2nc(-c3ccc4c(c3)CC(=O)N4)no2)C1 | > 100000 nM | 16500 nM | 35000 nM | 137 nM | 305 nM | 73 µg/mL (≈ 168 µM) | 1.91 | 3.38 ×10⁻⁶ cm/s |
| COc1ccc(Cl)cc1Cc1c[nH]c2ccc(C(=O)Nc3nc(CC(=O)O)cs3)cc12 | 1200 nM | > 100000 nM | > 100000 nM | 39.3 nM | 59.2 nM | 55 µg/mL (≈ 121 µM) | 1.48 | 0.49 ×10⁻⁶ cm/s |
| N#Cc1cccc(-c2nc([C@H]3CCCCN3C(=O)COc3ccccc3)no2)c1 | > 100000 nM | 15600 nM | > 100000 nM | 84.8 nM | 412 nM | < 1 µg/mL | 3.17 | 3.83 ×10⁻⁶ cm/s |
| COc1ccc(Cl)cc1S(=O)(=O)N1CCOc2c(Cl)cc(C(=O)Nc3ccn(CC(=O)O)n3)cc21 | 5650 nM | > 100000 nM | > 100000 nM | 218 nM | 144 nM | 558 µg/mL (≈ 1030 µM) | -0.79 | 0.03 ×10⁻⁶ cm/s |
| COc1ccc(Cl)cc1CN1C(=O)C2(CC2)c2ccc(C(=O)Nc3nc(CC(=O)O)cs3)cc21 | 2760 nM | > 100000 nM | > 100000 nM | 91.1 nM | 34.8 nM | 48 µg/mL (≈ 96.4 µM) | 2.7 | 1.03 ×10⁻⁶ cm/s |
| O=C(COc1ccccc1)N1CCOC[C@@H]1c1nc(-c2ccc3[nH]cnc3c2)no1 | > 100000 nM | > 100000 nM | > 100000 nM | 89.3 nM | 339 nM | 19 µg/mL (≈ 46.9 µM) | 2.62 | 2.8 ×10⁻⁶ cm/s |
| COc1ccc(Cl)cc1S(=O)(=O)Nc1cc(C(=O)Nc2ccccc2)ccc1CCC(=O)O | 46800 nM | > 100000 nM | > 100000 nM | 53.7 nM | 54.2 nM | 440 µg/mL (≈ 900 µM) | 0.47 | 2.38 ×10⁻⁶ cm/s |
| O=C(COc1ccccc1)N1CCCC[C@@H]1c1nc(-c2ccc3nccn3c2)no1 | 78100 nM | 14500 nM | > 100000 nM | 167 nM | 334 nM | 17 µg/mL (≈ 42.1 µM) | 2.75 | 6.32 ×10⁻⁶ cm/s |
| COc1ccc(Cl)cc1S(=O)(=O)N1CCOc2c(C)cc(C(=O)Nc3nc(CC(=O)O)cs3)cc21 | 3170 nM | > 100000 nM | > 100000 nM | 53.9 nM | 38.3 nM | 3 µg/mL (≈ 5.58 µM) | 2.55 | 1.88 ×10⁻⁶ cm/s |
| COc1ccc(Cl)cc1S(=O)(=O)N1CCOc2ccc(C(=O)Nc3ccn(CC(=O)O)n3)cc21 | 9890 nM | > 100000 nM | > 100000 nM | 213 nM | 171 nM | > 675 µg/mL | 1.27 | 0.09 ×10⁻⁶ cm/s |
| COc1ccc(Cl)cc1S(=O)(=O)c1cn(CCCC(=O)O)c2ccc(C(=O)Nc3ccccc3)cc12 | 12000 nM | 38600 nM | > 100000 nM | 15.1 nM | 10.1 nM | 133 µg/mL (≈ 252 µM) | 0.98 | 0.27 ×10⁻⁶ cm/s |
